This passage reports EC50 results from US12264173B2 (GILEAD SCIENCES, INC., priority 2020, dated 2025).

Where two headings read alike, the source gives them in different places.

What all share (type): cell-based
Test [1] deals with RSV strain A2. Briefly: microbe, parasite or virus in culture. To be noted: Table 3, HEp-2 cells, RSV A2, 4 days, read-out: RSV HEp-2 EC50. A digest of the protocol:
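Cytopathic-effect protection assay: HEp-2 cells (50,000/mL) infected with pre-titered RSV A2 onto 3-fold serial compound dilutions, incubated 4 days at 37° C. Cell viability read by CellTiter-Glo luminescence; percent inhibition derived against 0% and 100% virus-inhibition controls.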

Test [2] has as its system RSV A2. Briefly: RSV NHBE EC50 (RSV A2 antiviral assay in NHBE cells). To be noted: read-out: RSV NHBE EC50. Summed up:
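Luminescent ATP-based viability was recorded in RSV A2-infected normal human bronchial epithelial cells exposed to serially diluted compound (3-fold steps, 0.05% DMSO). Infection used 1×10^4.5 TCID/mL, with a 4-day incubation at 37° C.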

For test [3], the system named is DENV2 replicon. As to the kind of experiment: DENV-2 Huh-7 Rep EC50 (replicon luminescence). Summed up: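 EC50 derived from luminescence dose-response, normalised to DMSO-only 0% inhibition wells, after 1.5 h with EnduRen substrate. Compounds were first exposed for 48 h at 37° C to DENV2 replicon Huh-7 cells (5,000/well).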
(In general: In antiviral work, replicon cells carry a viral genome segment that copies itself.)

Test [4] concerns Dengue serotype 2 New Guinea C (NGC) strain. As to the kind of experiment: DENV-2 Huh-7 EC50 (qPCR in Huh7 cells). The method, then: Huh7 (Human hepatocarcinoma 7) cells were maintained in 10% FCS-containing DMEM complete media. On the day of the assay, cells were trypsinized (0.1% Trypsin-EDTA), washed and infected for 2 hours in serum-free DMEM with Dengue serotype 2 New Guinea C (NGC) strain at MOI=0.1 with gentle agitation at 37° C. After 2 hours, cells were washed with serum-free media and suspended in 10% FCS-containing DMEM (Gibco, supplemented with sodium pyruvate, NEAA, Penicillin-Streptomycin). 10^5 cells were plated in triplicate in 96-well plates with compounds dispensed at graded doses (Hewlett-Packard D300 Digital Dispenser). All wells were normalized to 0.25% DMSO. At 48 hours, cells were washed with 1×PBS and all supernatants removed. Total RNA was extracted using RNEasy 96 plates (Qiagen) and used to generate first-strand cDNA using XLT cDNA 5× Supermix (QuantaBio). cDNA was used as a template in a Taqman qPCR duplex reaction specific to DENV2 viral and GAPDH gene expression. EC50 values were determined using Prism Graphpad software, with normalization to a positive control and no compound negative control wells.
Background: In qPCR the cycle at which signal appears reflects the starting amount.

Where [5] appears, read: human respiratory syncytial virus, HEp-2, 96 h.
[6] abbreviates: human respiratory syncytial virus, NHBE, 96 h, Table 3, NHBE cells, RSV A2, 4 days.
The mark [7] stands for this setting: human respiratory syncytial virus, NHBE, Table 5 comparative activity, 2',3'-OH vs -OC(O)iPr.
Where [8] appears, read: Dengue virus, DENV2, Huh-7, 48 h, read-out: DENV-2 REP Huh7 EC50.
The mark [9] stands for this setting: Dengue virus, DENV2, Huh-7, Table 3, Huh7 cells, 48 hours, read-out: DENV-2 Huh7 EC50.
Where [10] appears, read: Dengue virus, Huh-7, read-out: DENV Huh7 EC50.
[11] abbreviates: Table 3, NHBE cells, RSV A2, 4 days.
Setting [12] is: Table 3, Huh-7 DENV2 replicon cells, 48 hours, read-out: DENV-2 REP Huh7 EC50.
Where [13] appears, read: Table 3, Huh7 cells, 48 hours, read-out: DENV-2 Huh7 EC50.

For the compound `COC(=O)[C@H](C)N[P@](=O)(OC[C@@]1(C#N)O[C@@H](c2ccc3c(N)ncnn23)[C@H](OC(=O)C(C)C)[C@@H]1OC(=O)C(C)C)Oc1ccccc1` (single isomer, unassigned) [Example 140], the concentration giving a half-maximal response (EC50) in test [1] (setting [5]) was determined as 42 nM; in test [2] (setting [6]) it was 14 nM; in test [2] (setting [7]), 14 nM; in test [3] (setting [8]) it was 5270 nM; in test [4] (setting [9]) it was 1220 nM; in test [4] (setting [10]) it was 1210 nM.

For `CCC(=O)O[C@H]1[C@H](c2ccc3c(N)ncnn23)O[C@](C#N)(CO[P@@](=O)(N[C@@H](C)C(=O)OC)Oc2ccccc2)[C@H]1OC(=O)CC` (single isomer, unassigned) [Example 143], the EC50 was found to be 92 nM in test [1] (setting [5]), 18 nM in test [2] (setting [6]), 5570 nM in test [3] (setting [8]) and 3130 nM in test [4] (setting [9]).

In the case of `CCOC(=O)[C@H](C)N[P@](=O)(OC[C@@]1(C#N)O[C@@H](c2ccc3c(N)ncnn23)[C@H](OC(=O)C(C)C)[C@@H]1OC(=O)C(C)C)Oc1ccccc1` (single isomer, unassigned) [Example 144], the EC50 came out at 34 nM in test [1] (setting [5]); 22 nM in test [2] (setting [6]); 22 nM in test [2] (setting [7]); 6170 nM in test [3] (setting [8]); 6170 nM in test [3] (Dengue virus, DENV2, Huh-7, read-out: DENV Rep EC50); 1180 nM in test [4] (setting [9]). In addition, the EC50 in test [4] (setting [10]) is 1280 nM.

For `CC(C)C(=O)O[C@H]1[C@H](c2ccc3c(N)ncnn23)O[C@](C#N)(COP(=O)(N[C@@H](C)C(=O)OCC2CCOCC2)Oc2ccccc2)[C@H]1OC(=O)C(C)C` (single isomer, unassigned) [Example 183], the EC50 was determined as 69 nM in test [1], 50 nM in test [2] (setting [11]), 3650 nM in test [3] (setting [12]) and 1110 nM in test [4] (setting [13]).

Consider `CC(C)C(=O)O[C@H]1[C@H](c2ccc3c(N)ncnn23)O[C@](C#N)(COP(=O)(N[C@@H](C)C(=O)OC2COC2)Oc2ccccc2)[C@H]1OC(=O)C(C)C` (single isomer, unassigned) [Example 186], for which the half-maximal effective concentration (EC50) is 41 nM in test [1], 4 nM in test [2] (setting [11]), 4220 nM in test [3] (setting [12]) and 1730 nM in test [4] (setting [13]).

On to `CC(C)C(=O)O[C@H]1[C@H](c2ccc3c(N)ncnn23)O[C@](C#N)(COP(=O)(N[C@@H](C)C(=O)OCC2COC2)Oc2ccccc2)[C@H]1OC(=O)C(C)C` (single isomer, unassigned) [Example 201], for which the EC50 in test [1] stood at 92 nM; in test [2] (setting [11]) it was 14 nM; in test [3] (setting [12]), 7690 nM; in test [4] (setting [13]) it was 317 nM.

Consider `CCC(CC)COC(=O)[C@H](C)N[P@](=O)(OC[C@@]1(C#N)O[C@@H](c2ccc3c(N)ncnn23)C(OC(=O)C(C)C)[C@@H]1OC(=O)C(C)C)Oc1ccccc1` (stereo in doubt) [Example 86, (2R,3S,4R,5S)-5-(4-aminopyrrolo[2,1-f][1,2,4]triazin-7-yl)-2-cyano-2-((((S)-(((S)-1-(2-ethylbutoxy)-1-oxopropan-2-yl)amino)(phenoxy)phosphoryl)oxy)methyl) tetrahydrofuran-3,4-diyl bis(2-methylpropanoate)], for which the EC50 in test [1] (setting [5]) stood at 100 nM; in test [2] (setting [6]) it was 24 nM; in test [3] (setting [8]) it was 8950 nM; in test [4] (setting [9]), 1410 nM.

Consider `CC(C)C(=O)O[C@H]1[C@H](c2ccc3c(N)ncnn23)O[C@](C#N)(CO[P@@](=O)(N[C@@H](C)C(=O)OC2CCCCC2)Oc2ccccc2)[C@H]1OC(=O)C(C)C` [Example 77, (2R,3S,4S,5S)-5-(4-aminopyrrolo[2,1-f][1,2,4]triazin-7-yl)-2-cyano-2-((((S)-(((S)-1-(cyclohexyloxy)-1-oxopropan-2-yl)amino)(phenoxy)phosphoryl)oxy)methyl) tetrahydrofuran-3,4-diyl bis(2-methylpropanoate)], for which the EC50 in test [1] (setting [5]) was 57 nM; in test [2] (setting [6]), 24 nM; in test [3] (setting [8]) it was 5390 nM; in test [4] (setting [9]), 1490 nM.

Turning to `CCC(=O)O[C@H]1[C@H](c2ccc3c(N)ncnn23)O[C@](C#N)(CO[P@@](=O)(N[C@@H](C)C(=O)OC2CCCCC2)Oc2ccccc2)[C@H]1OC(=O)CC` [Example 82, (2R,3S,4S,5S)-5-(4-aminopyrrolo[2,1-f][1,2,4]triazin-7-yl)-2-cyano-2-((((S)-(((S)-1-(cyclohexyloxy)-1-oxopropan-2-yl)amino)(phenoxy)phosphoryl)oxy)methyl) tetrahydrofuran-3,4-diyl dipropionate], the EC50 in test [1] (setting [5]) turned out to be 58 nM; in test [2] (setting [6]), 32 nM; in test [3] (setting [8]), 7630 nM; in test [4] (setting [9]) it was 3980 nM.

For the compound `CCC(=O)O[C@H]1[C@H](c2ccc3c(N)ncnn23)O[C@](C#N)(CO[P@@](=O)(N[C@@H](C)C(=O)OC(C)C)Oc2ccccc2)[C@H]1OC(=O)CC` [Example 90, (2R,3S,4S,5S)-5-(4-Aminopyrrolo[2,1-f][1,2,4]triazin-7-yl)-2-cyano-2-((((S)-(((S)-1-isopropoxy-1-oxopropan-2-yl)amino)(phenoxy)phosphoryl)oxy)methyl) tetrahydrofuran-3,4-diyl dipropionate], the half-maximal effective concentration (EC50) in test [1] (setting [5]) turned out to be 109 nM; in test [2] (setting [6]), 45 nM; in test [3] (setting [8]) it was 24300 nM; in test [4] (setting [9]) it was 2160 nM.

In the case of `CCC(=O)O[C@H]1[C@H](c2ccc3c(N)ncnn23)O[C@](C#N)(CO[P@@](=O)(N[C@@H](C)C(=O)OCC2CC2)Oc2ccccc2)[C@H]1OC(=O)CC` [Example 99], the EC50 in test [1] was found to be 58 nM; in test [2] (setting [11]), 14 nM; in test [3] (setting [12]), 6310 nM.

With `COC(=O)[C@H](C)N[P@](=O)(OC[C@@]1(C#N)O[C@@H](c2ccc3c(=N)n(COP(=O)(O)O)cnn23)[C@H](OC(=O)C(C)C)[C@@H]1OC(=O)C(C)C)Oc1ccccc1` [Example 259, (2R,3S,4S,5S)-2-cyano-5-(4-imino-3-((phosphonooxy)methyl)-3,4-dihydropyrrolo[2,1-f][1,2,4]triazin-7-yl)-2-((((S)-(((S)-1-methoxy-1-oxopropan-2-yl)amino)(phenoxy)phosphoryl)oxy)methyl)tetrahydrofuran-3,4-diyl bis(2-methylpropanoate)], the EC50 was 36 nM in test [1] (setting [5]), 11 nM in test [2] (setting [6]), 5360 nM in test [3] (setting [8]) and 1860 nM in test [4] (setting [9]).

For orientation: EC50 means the concentration needed to bring the measured effect to its halfway point.
